Laboratory results taken from patent US4853221A, “Method for treating non-small cell lung cancer, head and neck cancers and breast cancer” (Warner-Lambert Company, priority 1987, dated 1989).

Key:
Renal tumor = experiment: Human tumor cloning system, renal tumors; type: cell-based; details: one hour, 6 specimens
Excerpt: (§1) The activity of trimetrexate was compared with that of methotrexate in tests with a human tumor cloning system (Latham, et al., Proc. Am. Assoc. Cancer Res., 24: 278 (1983)). The data from these tests appear in Table III were the activities are expressed as the numbers of tumors with 50% or greater reduction in tumor colony forming units after one hour exposure to the drug.

[1] = test system: metastatic squamous cell cancer of the head and neck; experiment: Phase II trial, metastatic squamous cell cancer of the head and neck; type: in vivo, human
Protocol: The efficacy and safety of trimetrexate in the treatment of patients with metastatic squamous cell cancer of the head and neck was evaluated in an 11-center Phase II study.
The primary sites of disease in the patients included head and neck (not otherwise specified), hypopharynx, floor of the mouth, oropharynx, tongue, and other parts of the mouth, nasal cavity, and larynx.
Patients were initially treated intravenously with 8 mg/m^2 /day of trimetrexate on Days 1 through 5 of a 21-day treatment cycle. Patients were evaluated after each treatment course and were withdrawn from the study if progressive disease was documented. Patients were eligible to received six courses of treatment if stable disease was documented, or were eligible to receive continued treatment with trimetrexate if a response was documented.

Lewis lung carcinoma = experiment: Antitumor activity against Lewis lung carcinoma in mice; type: in vivo, mouse; details: optimal dose 40 mg/kg (dose range 40-1.25), IV daily, Days 1-9
Protocol: (§2) The growth inhibition properties of 5-methyl-6-[[(3,4,5-trimethoxyphenyl)amino]methyl]-2,4-quinazolinediamine (trimetrexate) against several transplanted murine tumors were evaluated employing the antitumor screening program of the Drug Evaluation Branch of the National Cancer Institute. The protocols for these tests is described in Cancer Chemotherapy Reports, 3: 1-103 (1972). The dosing schedules are results from these tests appear in Table IV.
(§3) Percent increase in median life span (% ILS) values appearing in the tables were calculated from the formula; 100×(median life span in days of treated mice minus median life span in days of untreated mice) divided by median life span in days of untreated control mice. That is, % ILS=[100×(T-C)]/C. % T/C and %ILS are directly interconvertible by the formula % ILS=% T/C -100.
(§4) In all of the mouse tumor studies described above, routine controls consisted of matching ten normal mice (with no tumors) to each tumor-bearing treatment group and injecting them with the same drug at the same dosages, schedules, days of administration, and drug route as the tumor-bearing mice. In this way, drug-induced toxicity (lethality and weight loss) could be clearly separated from the effects of the drug on the tumors.

[2] = test system: Early Stage P388 Leukemia; experiment: Combination chemotherapy, therapeutic synergy against early stage P388 leukemia; type: in vivo, mouse; details: Test 1
Protocol: Several studies were carried out to determine the potential for therapeutic synergy of trimetrexate with several clinically active anticancer agents. […] (See, for example, Vendetti, "Relevance of Transplantable Animal-Tumor Systems to the Selection of New Agents for Clinical Trial," Pharmacological Basis of Cancer Chemotherapy. Williams and Wilkins, Baltimore, 1975, and Simpson Herren, et al., "Evaluation of In Vivo Tumor Models for Predicting Clinical Activity for Anticancer Drugs," Proc. Am. Assoc. Cancer Res., 26: 330 (1985).
Differences in cell kill of greater than ten-fold (one log) were considered indicative of therapeutic synergy.
CD2F1 mice were quarantined for at least two weeks prior to allocation to test groups. P388 leukemia was passaged in DBA2 mice according to standard protocols of the National Cancer Institute. On Day 0 of a given test, all mice in the test were randomized, injected intraperitoneally with suitably diluted ascites fluid from P388 tumor-bearing donor mice and rerandomized to test cages.
The initial inoculum for all but titration groups was 10^6 cells as determined by hemocytometer count. Each experiment contained an internal control and tumor titration which enabled the determination of the tumor doubling time and estimates of the log cell kill and number of tumor cells surviving treatment.
Drug treatment was begun either on Day 1 or on Day 4 depending upon the relative activity of the agents being tested.
All of the drugs were injected within one hour of dissolution, with the exception of trimetrexate which was made up fresh twice daily. All mice were treated on the basis of average cage-group weight.
In drug combination regimens, trimetrexate was given approximately 30 minutes before the other therapeutic agents when the route of administration of the other agent was ip. […]
Group average weights were determined for all groups on Days 1, 5, and 9 for "early stage" P388 tests and on Days 4, 8, and 12 for "advanced stage" P388 tests. Animals were monitored for life span. […]

Colon 38 = experiment: Antitumor activity against colon adenocarcinoma 38 in mice; type: in vivo, mouse
salivary gland cancer = experiment: Phase I clinical trials, salivary gland cancer; type: in vivo, human; details: single agent
Protocol: Several Phase I clinical trials employing trimetrexate in human patients were carried out. In one study, 36 patients were treated with trimetrexate as a single agent at daily doses of 0.5 mg/m^2 /day to 12 mg/m^2 /day administered intravenously for five days.
In additional Phase I clinical studies, patients were administered trimetrexate with single intravenous doses ranging between 5 and 450 mg/m^2 and with weekly doses of slightly greater than 100 mg/m^2.

Melanoma = experiment: Human tumor cloning system, melanoma; type: cell-based; details: one hour, 5 specimens
Excerpt: as §1

B-16 Melanoma = experiment: Antitumor activity against B-16 melanoma in mice; type: in vivo, mouse; details: for Life Span % ILS / Life Span % T/C: ip daily, Days 1-9
Protocol: as §2
In the L1210, P388, and B-16 melanoma models, results are expressed as a percentage of median control survival time. Percentage of increase in survival time and/or cures (30 day survivors) were the parameters used to measure the effectiveness of the agents. An initial median survival value for treated over control percentage (% T/C) equal to or greater than 125% was considered indicative of activity. For confirmatory activity, two multidose assays must show % T/C values equal to or greater than 150%.
as §3
B16 Melanotic melanoma was implanted into BD2F1 mice in the form of a tumor "brei" prepared from a 1:10 weight/volume homogenate of the tumor in balanced salt solution.
as §4

[3] = optimal dose 20 mg/kg (dose range 20-0.62)
[4] = optimal dose 20 mg/kg (dose range 40-1.25)

Compound: COc1cc(NCc2ccc3nc(N)nc(N)c3c2C)cc(OC)c1OC [Trimetrexate, 5-methyl-6-[[(3,4,5-trimethoxyphenyl)amino]methyl]-2,4-quinazolinediamine]
- Number of Tumors with 50% or Greater Decrease in Tumor Colony Forming Units (Renal tumor; trimetrexate 0.1 μg/ml): 1
- Number of Tumors with 50% or Greater Decrease in Tumor Colony Forming Units (Renal tumor; trimetrexate 1.0 μg/ml): 1
- patients with partial response ([1]; 38 evaluable patients, initial 8 mg/m^2/day iv Days 1-5 of 21-day cycle): Ten
- partial response rate ([1]; 95% confidence interval 12-40%, evaluable patients): 26%
- patients with stable disease ([1]; in vivo): Nineteen
- median duration of response ([1]; range 4.1-59+ weeks, ten responders): 12.2 weeks
- median time to progressive disease ([1]; range 9.3-74+ weeks): 19.1 weeks
- Life Span % T/C (Lewis lung carcinoma): Negligible
- single agent activity [2]: the more active of the two single agents
- antitumor activity (Colon 38; mouse, in vivo): good activity
- Tumor Weight Inhibition % TWI (Colon 38; optimal dose 60 mg/kg (dose range 60-1.88), Sc every 7 days, Days 2-9): 85%
- patients with favorable responses (salivary gland cancer): two
- Number of Tumors with 50% or Greater Decrease in Tumor Colony Forming Units (Melanoma; trimetrexate 0.1 μg/ml): 2
- Number of Tumors with 50% or Greater Decrease in Tumor Colony Forming Units (Melanoma; trimetrexate 1.0 μg/ml): 3
- antitumor activity (B-16 Melanoma; intraperitoneally implanted): good activity
- Life Span % ILS (B-16 Melanoma; [3]): 50%
- Life Span % T/C (B-16 Melanoma; [3]): 150%
- Life Span % ILS (B-16 Melanoma; [4]): 64%
- Life Span % T/C (B-16 Melanoma; [4]): 164%
